Structures are written as SMILES.

In this test the target is T1, ΔF508-CFTR (Homo sapiens, UniProt P13569, DEL508-508).
T1 construct: Primary lung epithelial cells homozygous for the Cystic Fibrosis-causing ΔF508 mutation; endogenous in cells; host or cells: primary human lung (bronchial) epithelial cells homozygous for ΔF508, differentiated at air-liquid interface
T1 sequence (P13569 with tags, fused parts or gaps DEL508-508): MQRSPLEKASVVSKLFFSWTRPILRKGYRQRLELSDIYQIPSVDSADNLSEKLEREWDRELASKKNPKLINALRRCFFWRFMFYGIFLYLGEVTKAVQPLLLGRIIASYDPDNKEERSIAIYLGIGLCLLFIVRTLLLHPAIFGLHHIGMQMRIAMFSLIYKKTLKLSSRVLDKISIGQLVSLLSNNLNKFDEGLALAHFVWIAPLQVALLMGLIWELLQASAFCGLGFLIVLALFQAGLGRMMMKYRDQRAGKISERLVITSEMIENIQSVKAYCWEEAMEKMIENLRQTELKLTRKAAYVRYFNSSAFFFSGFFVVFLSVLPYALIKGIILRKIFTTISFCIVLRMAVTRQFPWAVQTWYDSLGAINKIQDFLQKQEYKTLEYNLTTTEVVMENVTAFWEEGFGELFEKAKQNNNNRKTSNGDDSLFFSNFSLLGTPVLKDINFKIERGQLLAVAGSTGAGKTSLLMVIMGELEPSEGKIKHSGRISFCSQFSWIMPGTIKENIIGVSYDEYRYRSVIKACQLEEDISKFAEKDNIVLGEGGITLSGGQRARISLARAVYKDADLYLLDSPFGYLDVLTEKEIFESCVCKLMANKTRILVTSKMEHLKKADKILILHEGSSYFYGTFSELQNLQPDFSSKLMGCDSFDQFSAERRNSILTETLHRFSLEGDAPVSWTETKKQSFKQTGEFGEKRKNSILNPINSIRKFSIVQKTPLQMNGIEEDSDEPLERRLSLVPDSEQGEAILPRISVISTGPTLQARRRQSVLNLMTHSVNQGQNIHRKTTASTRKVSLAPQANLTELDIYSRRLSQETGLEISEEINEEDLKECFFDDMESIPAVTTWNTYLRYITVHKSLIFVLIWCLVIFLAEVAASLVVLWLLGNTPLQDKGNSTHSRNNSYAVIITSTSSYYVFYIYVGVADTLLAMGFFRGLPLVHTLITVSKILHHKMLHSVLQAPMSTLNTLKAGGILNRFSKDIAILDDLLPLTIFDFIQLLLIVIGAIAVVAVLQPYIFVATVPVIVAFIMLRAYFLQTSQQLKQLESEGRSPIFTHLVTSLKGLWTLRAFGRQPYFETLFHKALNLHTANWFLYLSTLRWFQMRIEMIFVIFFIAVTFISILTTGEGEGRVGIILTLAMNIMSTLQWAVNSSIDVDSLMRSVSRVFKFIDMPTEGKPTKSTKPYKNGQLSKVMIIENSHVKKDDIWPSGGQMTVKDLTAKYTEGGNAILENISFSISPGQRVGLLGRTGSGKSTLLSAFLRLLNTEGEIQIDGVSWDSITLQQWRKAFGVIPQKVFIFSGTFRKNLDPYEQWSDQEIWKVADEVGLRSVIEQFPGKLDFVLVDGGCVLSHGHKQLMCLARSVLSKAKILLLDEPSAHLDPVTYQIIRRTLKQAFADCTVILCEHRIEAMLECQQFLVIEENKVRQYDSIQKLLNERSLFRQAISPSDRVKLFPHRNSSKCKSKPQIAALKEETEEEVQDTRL
Put plainly: hBE equivalent current (Ieq) assay. Type of test: cell-based. To be noted: compound at 10 uM together with VX-809 at 1 uM, relative to VX-809 (1 uM); AUC of equivalent chloride current; primary hBE homozygous ΔF508; 24 h treatment. On the procedure: Primary lung epithelial cells homozygous for the Cystic Fibrosis-causing ΔF508 mutation were differentiated for a minimum of 4 weeks in an air-liquid interface on Costar 24 well HTS filter plates prior to the equivalent current (Ieq) measurements. Cells were apically mucus-washed for 30 minutes 24 h prior to treatment with compounds. The basolateral media was removed and replaced with media containing the compound of interest diluted to its final concentration from DMSO stocks. Treated cells were incubated at 37° C. and 5% CO2 for 24 hours. At the end of the treatment period, the media was changed to the Ieq experimental solution for 30 minutes before the experiment and plates are maintained in a CO2-free incubator during this period. The plates containing the cells were then placed in pre-warmed heating blocks at 36° C.±0.5 for 15 minutes before measurements are taken. The transepithelial voltage (VT) and conductance (GT) were measured using a custom 24 channel current clamp (TECC-24) with 24 well electrode manifold. The Ieq assay measurements were made following additions with standardized time periods: • 1. The baseline VT and GT values were measured for approximately 20 minutes. • 2. Benzamil was added to block ENaC for 15 minutes. • 3. Forskolin plus VX-770 were added to maximally activate ΔF508-CFTR for 27 minutes. • 4. Bumetanide was added to inhibit the NaK2Cl cotransporter and shut-off secretion of chloride.
The activity data captured was the area under the curve (AUC) for the traces of the equivalent chloride current. The AUC was collected from the time of the forskolin/VX-770 addition until the inhibition by bumetanide addition. Correction in response to compound treatment was scored as the increase in the AUC for compound-treated samples over that of vehicle-treated samples. The results are shown below in Table 2 (++indicates activity ≧25% run at 10 uM of VX-809 at 1 uM; +indicates activity 10 to <25% run at 10 uM of VX-809 at 1 uM; ** indicates activity ≧200% of VX-809 (1 uM) with compound at 10 uM and VX-809 at 1 uM; * indicates activity 100-200% of VX-809 (1 uM) with compound at 10 uM and VX-809 at 1 uM)
With `COC(C)c1nnc(CCNC(=O)c2cc(-c3ccccc3)on2)o1` (stereo in doubt) [Compound A24-a, (R)-N-(2-(5-(1-methoxyethyl)-1,3,4-oxadiazol-2-yl)ethyl)-5-phenylisoxazole-3-carboxamide], the “Ieq Activity” value is “* (* indicates activity 100-200% of VX-809 (1 uM) with compound at 10 uM and VX-809 at 1 uM)”.

Turning to `COC(C)c1nnc(CCNC(=O)c2cc(-c3ccccc3)on2)o1` (stereo in doubt) [Compound A24-b, (S)-N-(2-(5-(1-methoxyethyl)-1,3,4-oxadiazol-2-yl)ethyl)-5-phenylisoxazole-3-carboxamide], the “Ieq Activity” value was “* (* indicates activity 100-200% of VX-809 (1 uM) with compound at 10 uM and VX-809 at 1 uM)”.

With `O=C(NCCc1nnc(CBr)s1)c1cc(-c2ccccc2)on1` [Compound A3, N-(2-(5-(bromomethyl)-1,3,4-thiadiazol-2-yl)ethyl)-5-phenylisoxazole-3-carboxamide], the “Ieq Activity” value was “** (** indicates activity ≧200% of VX-809 (1 uM) with compound at 10 uM and VX-809 at 1 uM)”.

For `COCc1nnc(CCNC(=O)c2cc(-c3ccccc3)on2)s1` [Compound A4, N-(2-(5-(methoxymethyl)-1,3,4-thiadiazol-2-yl)ethyl)-5-phenylisoxazole-3-carboxamide], the “Ieq Activity” value was “** (** indicates activity ≧200% of VX-809 (1 uM) with compound at 10 uM and VX-809 at 1 uM)”.

In the case of `COCc1nnc(CCNC(=O)c2cc(-c3ccccc3)on2)o1` [Compound A5, N-(2-(5-(methoxymethyl)-1,3,4-oxadiazol-2-yl)ethyl)-5-phenylisoxazole-3-carboxamide], the “Ieq Activity” value was “** (** indicates activity ≧200% of VX-809 (1 uM) with compound at 10 uM and VX-809 at 1 uM)”.

Take `Cc1nnc(CCCNC(=O)c2cc(-c3ccccc3)on2)s1` [Compound A6, N-(3-(5-methyl-1,3,4-thiadiazol-2-yl)propyl)-5-phenylisoxazole-3-carboxamide]: the “Ieq Activity” value is “** (** indicates activity ≧200% of VX-809 (1 uM) with compound at 10 uM and VX-809 at 1 uM)”.

As for `[N-]=[N+]=NCc1nnc(CCNC(=O)c2cc(-c3ccccc3)on2)s1` [Compound A7, N-(2-(5-(azidomethyl)-1,3,4-thiadiazol-2-yl)ethyl)-5-phenylisoxazole-3-carboxamide], the “Ieq Activity” value was “** (** indicates activity ≧200% of VX-809 (1 uM) with compound at 10 uM and VX-809 at 1 uM)”.

Regarding `CC(C)c1nnc(CCNC(=O)c2cc(-c3ccccc3)on2)o1` [Compound A8, N-(2-(5-isopropyl-1,3,4-oxadiazol-2-yl)ethyl)-5-phenylisoxazole-3-carboxamide], the “Ieq Activity” value was “** (** indicates activity ≧200% of VX-809 (1 uM) with compound at 10 uM and VX-809 at 1 uM)”.

Consider `CC(C)(O)c1nnc(CCNC(=O)c2cc(-c3ccccc3)on2)s1` [Compound A9, N-(2-(5-(2-hydroxypropan-2-yl)-1,3,4-thiadiazol-2-yl)ethyl)-5-phenylisoxazole-3-carboxamide], for which the “Ieq Activity” value was “** (** indicates activity ≧200% of VX-809 (1 uM) with compound at 10 uM and VX-809 at 1 uM)”.

`CC(C)(O)c1nnc(CCNC(=O)c2cc(-c3ccccc3)on2)o1` [Compound A10, N-(2-(5-(2-hydroxypropan-2-yl)-1,3,4-oxadiazol-2-yl)ethyl)-5-phenylisoxazole-3-carboxamide]: the “Ieq Activity” value is “** (** indicates activity ≧200% of VX-809 (1 uM) with compound at 10 uM and VX-809 at 1 uM)”.

Consider `O=C(NCCc1nnc(CO)s1)c1noc(-c2ccccc2)c1F` [Compound A11, 4-fluoro-N-(2-(5-(hydroxymethyl)-1,3,4-thiadiazol-2-yl)ethyl)-5-phenylisoxazole-3-carboxamide], for which the “Ieq Activity” value is “* (* indicates activity 100-200% of VX-809 (1 uM) with compound at 10 uM and VX-809 at 1 uM)”.

As to `O=C(NCCc1nnc(CO)s1)c1noc(-c2ccc(F)cc2)c1F` [Compound A12, 4-fluoro-5-(4-fluorophenyl)-N-(2-(5-(hydroxymethyl)-1,3,4-thiadiazol-2-yl)ethyl)isoxazole-3-carboxamide], the “Ieq Activity” value was “* (* indicates activity 100-200% of VX-809 (1 uM) with compound at 10 uM and VX-809 at 1 uM)”.

The record behind these values is patent US9790219B2, “Compounds, compositions, and methods for increasing CFTR activity” (Proteostasis Therapeutics, Inc., priority 2014, dated 2017).
